One data set has as its system proteasome. Description: Rescue of PDP 16 pirin depletion by proteasome inhibitor in SK-OV-3 cells. The class given is cell-based, human. The settings on record: 500 nM, 4 h pretreatment, then PDP 16 24 h. As to the method:
(§1) in vivo in athymic mice to increase its tumorigenicity and reliability as a xenograft, and used within 10 passages of banked stocks.
(§2) Prior to use, the cells were analyzed by short tandem repeat (STR) profiling. Polymorphic STR loci were amplified using a polymerase chain reaction (PCR) primer set. The PCR product (each locus being labelled with a different fluorophore) was analyzed simultaneously with size standards using automated fluorescent detection. The number of repeats at 10 different loci (as recommended by the American Type Culture Collection, ATCC) was used to define the STR profile and this was cross-referenced with online databases to confirm authenticity. […]
(§3) the ATCC reference line (LGC Promochem, UK). […]
(§4) nested PCR protocol (Venor GeM kit, Minerva Biolabs, Germany). Cells were grown in DMEM/10 % FCS, 2 mM glutamine and nonessential amino acids in 5 % CO2.
(§5) SK-OV-3 cells were treated as for each experimental condition. Cells were harvested and lysed by scraping in urea lysis buffer (20 mM HEPES pH 8.0, 9 M urea, 1 mM sodium orthovanadate, 2.5 mM sodium pyrophosphate, 1 mM β-glycerophosphate). […]
of samples was determined using a bicinchoninic acid (BCA) protein assay kit (Thermo Fisher Scientific). […]
Samples were treated, harvested and lysed as described above. […] The data was analyzed with the Compass software (ProteinSimple). […]

A short description of data set [1]: LogD7.4 determination by RP-HPLC. The following applies: pH 7.4.
Data set [2] is described as follows: PDP aqueous stability protocol. The following applies: for half-life at 100 µM: phosphate buffer (PBS).
Data set [3] concerns the target T1, pirin protein in SK-OV-3 human ovarian cancer cells (Homo sapiens, UniProt O00625).
T1 construct: endogenous in cells; host or cells: SK-OV-3
T1 sequence (O00625 1-290): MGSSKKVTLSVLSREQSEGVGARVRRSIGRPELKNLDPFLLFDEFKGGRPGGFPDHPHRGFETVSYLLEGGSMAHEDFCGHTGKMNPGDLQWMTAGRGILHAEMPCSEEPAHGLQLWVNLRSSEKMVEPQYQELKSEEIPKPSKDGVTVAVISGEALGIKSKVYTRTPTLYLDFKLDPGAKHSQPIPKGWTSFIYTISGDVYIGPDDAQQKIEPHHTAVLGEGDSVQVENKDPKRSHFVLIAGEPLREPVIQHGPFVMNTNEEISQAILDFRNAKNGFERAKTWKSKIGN
Description: Pirin depletion in SK-OV-3 cells (immunoblot / capillary electrophoresis immunoassay). The class given is cell-based. As to the method:
as §1, §2, §3, §4, §5
(§6) of samples was determined using a bicinchoninic acid (BCA) protein assay kit (Thermo Fisher Scientific). Western blotting was carried out as previously described.10 Pirin and GAPDH antibodies were obtained from Abcam (ab157212) and Merck […]
(§7) Samples were treated, harvested and lysed as described above. A total of 5 μL of 0.2 mg/mL protein was loaded into plates and capillary western analysis was carried out according to the manufacturer’s instructions (ProteinSimple WES). The data was analyzed with the Compass software (ProteinSimple).
(§8) Sigma-Aldrich and Cell Signaling Technology, respectively.
(§9) 10 Sharp SY, Boxall K, Rowlands M, Prodromou C, Roe SM, Maloney A, Powers M, Clarke PA, Box G, Sanderson S, Patterson L, Matthews TP, Cheung KM, Ball K, Hayes A, Raynaud F, Marais R, Pearl L, Eccles S, Aherne W, McDonald E, Workman P. In vitro biological characterization of a novel, synthetic diaryl pyrazole resorcinol class of heat shock protein 90 inhibitors.

Data set [4] has as its target T2, pirin (Homo sapiens, UniProt O00625).
T2 sequence (O00625 1-290): T1 sequence (O00625 1-290)
Description: Pirin SPR (surface plasmon resonance) binding. The settings on record: for Measured Rmax/Theoretical Rmax: SPR.

The target in a further data set is T3, CRBN-DDB1 complex (Homo sapiens, UniProt Q96SW2).
T3 construct: His6-ZZ-HRV3C (N); made in house; host or cells: Sf9 insect cells (baculovirus co-infection)
Description: CRBN/DDB1 fluorescence polarization competition assay. The class given is binding. The following applies: for Ki: calculated from geometric mean CRBN-DDB1 IC50 and FP-probe KD. As to the method: CRBN/DDB1 Fluorescence Polarization Assay […]
Unless otherwise stated, the aqueous assay buffer contained 0.02 M HEPES((4-(2-hydroxyethyl)-1-piperazineethanesulfonic acid)) pH 8.0, 0.15 M NaCl, 0.5 mM TCEP ((tris(2-carboxyethyl)phosphine)), 0.05% Tween 20. The assay was conducted using 384 well black plates (ProxiPlate F Plus, Perkin-Elmer, Massachusetts, USA).
Plate Reader. […] Fluorescence […]
polarization was measured in units of millipolarization (mP) and are background corrected. Data were plotted and analyzed using […]
All experiments were performed in triplicate unless otherwise stated. Values are quoted as the geometric […]
Each graph is a representative example of a single biological repeat unless otherwise stated.
CRBN/DDB1 Protein Expression & Purification
Protein expression and purification methods adapted from Lopez-Girona et al.5 Full length human CRBN (accession number NM016302) was amplified by PCR & inserted downstream of the polyhedrin promoter of a pFBDM expression vector which had been modified to introduce a N-terminal His6-ZZ-HRV3C tag. Full length human DDB1 (accession number NM001923) was amplified by PCR with primers which introduced a C-terminal StrepTag and inserted downstream of the p10 promoter of a separate pFBDM expression vector. Baculoviruses were generated according to Bac-to-Bac protocols (Invitrogen) and used to co-infect Sf9 cells grown @ 27 °C in shaker flasks using Insect-XPRESS media (Lonza). Cells were harvested 48 hours post infection and frozen. For purification, pellets were thawed & resuspended in 5 volumes of Histrap buffer A (see below) and lysed […]
Superdex 200 (HiLoad 26/600), ResourceQ (6 mL) and finally a second Superdex 200 (HiLoad 26/600) column. All columns were from GE Healthcare and all purification steps were performed @ 4 °C. HisTrap buffer A: 50mM Tris (2-Amino-2-(hydroxymethyl)propane-1,3-diol), 500mM NaCl, 0.5mM TCEP ((tris(2-carboxyethyl)phosphine), 5% glycerol, pH 8.0. HisTrap Buffer B: + 250 mM imidazole. Superdex 200 buffer: 50mM Tris, 200mM NaCl, 0.5mM TCEP, 5% glycerol, pH 8.0. Resource Q buffer A: 50mM Tris, 0.5mM TCEP, 5% Glycerol, pH8.0. Resource Q buffer B + 1M NaCl.
California, USA) to prepare CRBN/DDB1 concentrations from 0.1 to 500 nM in 10 µL final assay volume containing 5 nM FP- […]
point prior to analysis. The KD was calculated using non-linear regression and a one-site specific binding model.
Analysis of competition assay FP-probe bound fraction […]
fb=probe bound fraction, KD=probe dissociation constant, L0=probe concentration, R0=protein concentration, Ki=ligand […]
CRBN/DDB1 Competition Assay
Compounds as solutions in DMSO were dispensed using an ECHO 550 Liquid Handler (Labcyte Inc).
Tracer controls (5 nM FP-probe S18 assay buffer only) and bound tracer controls (5 nM and 80 nM CRBN/DDB1) were included on each assay plate . Plates were incubated overnight at 4 °C before warming to room temperature and fluorescence polarization measured using an EnVision plate reader (Perkin -Elmer, Massachusetts, USA). IC 50 values […]
Table S2. CRBN/DDB1 Control Compounds

Data set [5] in a line: Kinetic solubility determination by RP-HPLC. The settings on record: PBS, pH 7.4, aqueous buffer, kinetic from dmso stock.
Data set [6] addresses T2, pirin. Description: Intracellular competition: rescue of PDP 16 pirin depletion by pirin ligands in SK-OV-3 cells. Type of data set: cell-based. Also noted: endogenous in cells; host or cells: SK-OV-3. As to the method: as §1, §2, §3, §4, §5, §6, §7, §8, §9
The mark [7] stands for this setting: Pirin SPR KD, equilibrium analysis, one site specific binding model, geometric mean n = 3.
Where [8] appears, read: Pirin SPR KD, representative single repeat, best-fit value, one site specific binding.
Where [9] appears, read: Pirin SPR pKD, mean of 3 values (unrounded), column statistics.
[10] abbreviates: Pirin SPR pKD±SEM, n = 3 independent biological repeats.
Setting [11] is: CRBN/DDB1 FP IC50, single repeat N=2, best-fit value, variable slope four parameters.
[12] abbreviates: best-fit value, variable slope four parameters, read-out: CRBN/DDB1 FP IC50, single repeat N=1.
Where [13] appears, read: best-fit value, variable slope four parameters, read-out: CRBN/DDB1 FP IC50, single repeat N=3.
The mark [14] stands for this setting: displacement of thalidomide derived fluorescent probe, geometric mean n = 3, read-out: CRBN/DDB1 FP IC50.
Where [15] appears, read: 4 h pretreatment, then PDP 16 for 2 h, SK-OV-3, Figure 4.

SMILES strings stand for the structures. In brackets after ≈: the same amount, converted by molar mass. Entries after “also recorded” stand apart in the source; their conditions may differ. Like-named read-outs stand apart in the source and are kept apart here. Peptide text beside a SMILES is read from it. * marks the point of attachment. Cbz = O=C(OCc1ccccc1)*

Regarding `CC(C)C[C@@H](C=O)NC(=O)[C@H](CC(C)C)NC(=O)[C@H](CC(C)C)NC(=O)OCc1ccccc1` [MG132] (Cbz-Leu-Leu-Leu-aldehyde), in the data set on proteasome, the “Rescue of pirin degradation by MG132 preincubation” value is reported as “rescue”.

`Cc1ccc(NC(=O)c2ccc3c(c2)OCCO3)cc1NC(=O)c1ccc2nc(OCCCC(=O)NCCOCCNC(=O)COc3cccc4c3C(=O)N(C3CCC(=O)NC3=O)C4=O)ccc2c1` (centres unmarked) [PDP 3, N-(5-(2,3-Dihydrobenzo[b][1,4]dioxine-6-carboxamido)-2-methylphenyl)-2-(4-((2-(2-(2-((2-(2,6-dioxopiperidin-3-yl)-1,3-dioxoisoindolin-4-yl)oxy)acetamido)ethoxy)ethyl)amino)-4-oxobutoxy)quinoline-6-carboxamide]: the chromatographic logD in data set [1] is 2.2. This compound also gave a half-life at 100 µM in data set [2] (pH 7.4) of 7.2 h. The “Effects on SK-OV-3 cells” value in data set [3] (>1 μM, >48 h, data not shown) is recorded as “no measurable effects on the cancer cells”. The Kd was 0.11 µM on pirin [4] (setting [7]), 0.111 µM on pirin [4] (setting [8]), 0.108 µM on pirin [4] (setting [9]) and 0.107 µM at pirin [4] (setting [10]). For the same compound, the “Measured Rmax/Theoretical Rmax” value on pirin [4] is given as 0.44. For the same compound, the IC50 on CRBN-DDB1 complex (setting [11]) is 0.496 µM; at CRBN-DDB1 complex (setting [12]), 1.51 µM; at CRBN-DDB1 complex (setting [13]), 0.811 µM; on CRBN-DDB1 complex (column statistics, read-out: CRBN/DDB1 FP pIC50, mean of 3 values (unrounded) (converted)) it was 0.847 µM; on CRBN-DDB1 complex (setting [14]) it was 0.85 µM. Moreover, the Ki at CRBN-DDB1 complex is 0.22 µM. Moreover, in data set [5], the solubility (kinetic) at 120 min stood at 1 µM (≈ 0.942 µg/mL).

Regarding `O=C1CCC(N2C(=O)c3cccc(OCCOCCOCCN4CCN(Cc5ccc6cc(C(=O)Nc7cc(NC(=O)c8cccc9c8OCCO9)ccc7Cl)ccc6n5)CC4)c3C2=O)C(=O)N1` (centres unmarked) [PDP 21, N-(2-Chloro-5-(2,3-dihydrobenzo[b][1,4]dioxine-5-carboxamido)phenyl)-2-((4-(2-(2-(2-((2-(2,6-dioxopiperidin-3-yl)-1,3-dioxoisoindolin-4-yl)oxy)ethoxy)ethoxy)ethyl)piperazin-1-yl)methyl)quinoline-6-carboxamide], the chromatographic logD in data set [1] came out at 2.9. For the same compound, in data set [2] (pH 7.4, Half-life (aqueous stability), 37 °C, pH 7.4 phosphate buffer), the half-life at 100 µM was 2.8 h. In data set [3] (SK-OV-3 cells, 24 h treatment, Western blot, Figure S19), the “Pirin depletion by negative control” value is recorded as “does not deplete pirin protein; also recorded: no pirin depletion”. The Kd on pirin [4] (setting [7]) is greater than 1.3 µM; at pirin [4] (setting [10]), greater than 1.26 µM. In addition, the IC50 at CRBN-DDB1 complex (setting [11]) amounted to 0.277 µM; on CRBN-DDB1 complex (setting [12]) it was 0.59 µM; at CRBN-DDB1 complex (setting [13]), 0.444 µM; on CRBN-DDB1 complex (setting [14]) it was 0.42 µM. Further, on CRBN-DDB1 complex, the Ki was 0.098 µM. This compound also registered a kinetic solubility at 120 min in data set [5] of 2 µM (≈ 1.89 µg/mL).

In the case of `Cc1ccc(NC(=O)c2ccc3c(c2)OCCO3)cc1NC(=O)c1ccc2nc(OCCN3CCCC3)ccc2c1` [chemical probe 1], the “Stability in pH 7.4 phosphate buffer” value in data set [2] (37 °C, pH 7.4 phosphate buffer) is “no instability”.

On to `CCN1CCN(Cc2ccc3cc(C(=O)Nc4cc(NC(=O)c5ccc6c(c5)OCCO6)ccc4Cl)ccc3n2)CC1` [chlorobisamide 22, N-(2-Chloro-5-(2,3-dihydrobenzo[b][1,4]dioxine-6-carboxamido)phenyl)-2-((4-ethylpiperazin-1-yl)methyl)quinoline-6-carboxamide], for which the Kd at pirin [4] (setting [8]) is 0.0199 µM; on pirin [4] (setting [9]), 0.0208 µM; at pirin [4] (setting [10]), 0.0209 µM. Besides, the “Measured Rmax/Theoretical Rmax” value at pirin [4] is on record as 0.29. In addition, the “Concentration giving complete rescue of pirin expression” value at pirin [6] (setting [15]) was 1 µM. Moreover, on pirin [6] (setting [15]), the “Rescue of pirin expression following treatment with PDP 16” value is listed as “concentration-dependent rescue of pirin expression”. Moreover, the “Competition of PDP 16 at 6 h exposure” value on pirin [6] (concentration > 1 μM, data not shown) is listed as “unsuccessful”.

The record behind these values is PMC5815658 (Journal of Medicinal Chemistry, 2017).
